Test results reported in PMC6562126, “Identification and characterization of a carnitine transporter in Acinetobacter baumannii” (MicrobiologyOpen, 2018).

How the values were obtained:
[1] = biological target: T1, Aci01347 (Acinetobacter baumannii, UniProt D0C9N4); experiment: competition with […]-choline uptake in E. coli MKH13 expressing Aci01347; assay type: cell-based; settings: read-out: % inhibition at 0.5 mM
T1 construct: gene HMPREF0010_01347; N-terminal His6 tag, pBAD/HisA; expressed in E. coli MKH13 (no compatible solute transporters)
T1 sequence (D0C9N4 1-550): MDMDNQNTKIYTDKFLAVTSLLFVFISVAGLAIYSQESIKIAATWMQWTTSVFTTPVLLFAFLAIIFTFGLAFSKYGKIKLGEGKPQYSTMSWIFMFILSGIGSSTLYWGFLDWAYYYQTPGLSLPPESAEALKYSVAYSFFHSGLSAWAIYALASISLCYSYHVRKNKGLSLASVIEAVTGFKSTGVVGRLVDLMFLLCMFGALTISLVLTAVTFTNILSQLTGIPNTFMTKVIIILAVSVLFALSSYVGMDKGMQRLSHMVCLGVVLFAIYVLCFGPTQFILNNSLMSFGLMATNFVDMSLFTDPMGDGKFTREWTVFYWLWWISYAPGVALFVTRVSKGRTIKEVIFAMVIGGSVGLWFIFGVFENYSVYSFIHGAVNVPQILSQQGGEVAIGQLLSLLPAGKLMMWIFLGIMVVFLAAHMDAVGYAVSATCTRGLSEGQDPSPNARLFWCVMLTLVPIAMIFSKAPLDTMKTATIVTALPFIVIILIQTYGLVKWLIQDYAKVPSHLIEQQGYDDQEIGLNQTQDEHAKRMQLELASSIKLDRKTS

[2] = biological target: T1, Aci01347; experiment: […]-choline uptake in E. coli MKH13 expressing Aci01347; assay type: cell-based; settings: 500 µM substrate; KPi 25 mM pH 7.5, 0.2 osmol/kg, 37 °C, glucose-energised cells; labelled compound

Row | Structure (SMILES) | inhibition at 500 µM [1] | [14C]-choline uptake in E. coli MKH13 expressing Aci01347 [2]
1 | CC1=NCC[C@@H](C(=O)O)N1 [ectoine] | 9.2% | 
2 | C[N+](C)(C)CC(=O)[O-] [glycine betaine] | 14.5% | 
3 | C[N+]1(C)CCC[C@H]1C(=O)[O-] [proline betaine] | 2.4% | 
4 | O=C(O)[C@@H]1CCCN1 [proline] | 4.6% | 
5 | C[N+](C)(C)CCO [choline, 2-hydroxyethyl trimethylammonium chloride] |  | These data demonstrate that Aci01347 translocates choline.
